What was measured:
[1] = Combination therapy (ALA photodynamic therapy plus alefacept) in patients with psoriasis; format: in vivo, patient; conditions: for alleviation of symptoms: then reduced course of alefacept
Basal Cell Carcinoma = test: Combination therapy (ALA photodynamic therapy plus imiquimod) in a patient with Basal Cell Carcinoma; format: in vivo; conditions: Example 3: ALA topical cream, red light several hours later, then a course of imiquimod
Experimental: A patient with a Basal Cell Carcinoma is administered ALA in the form of a topical cream, which is applied to the affected areas. Several hours after administration of the ALA, the patient is exposed to an activating red light. Subsequently, the patient is administered a course of imiquimod therapy.

[2] = Combination therapy (ALA photodynamic therapy plus imiquimod) in a patient with warts; format: in vivo; conditions: Example 7: ALA topical cream, white light several hours later, then reduced course of imiquimod
Experimental: A patient with warts is administered ALA in the form of a topical cream, which is applied to the affected area. Several hours after administration of the ALA, the patient is exposed to white light. Subsequently, the patient is administered a reduced course of imiquimod therapy.

[3] = cited from earlier work

NCC(=O)CCC(=O)O [ALA, 5-Amino-4-oxopentanoic acid]
improvement of psoriasis ([1]; Example 1: several patients, topical ALA, then Intense Pulsed Light (IPL), then alefacept as normally done): almost immediate improvements
return of psoriatic symptoms after cessation of alefacept therapy ([1]; Example 2: topical ALA and blue light after a completed alefacept treatment cycle): less return of their psoriatic symptoms
alleviation of symptoms ([1]; Example 4: ALA topical cream, activating light several hours later): alleviation of symptoms soon after receiving the treatment
alleviation of symptoms ([1]; Example 5: ALA i.v. injection, 5 J/cm^2 of 417 nm blue light after one to three hours): alleviation of symptoms soon after receiving the treatment
alleviation of symptoms ([1]; Example 6: oral ALA, 10 J/cm^2 of 417 nm blue light after one to three hours): alleviation of symptoms soon after receiving the treatment
resolution of the cancerous lesion (Basal Cell Carcinoma): rapid and complete resolution of the cancerous lesion
alleviation of symptoms [2]: alleviation of symptoms soon after receiving the treatment
solubility in water [3]: water soluble
